Measured values reported in patent US20060013804A1, “Modulation of stem cell differentiation by modulation of caspase-3 activity” (Ottawa Health Research Institute, priority 2002, published 2006).

System: neurospheres
Assay: Cytotoxicity observed in neurosphere cultures
Assay type: cell-based, mouse
Settings: neurosphere experiments
From the text: Under growth conditions, neurospheres readily stained for nestin, an intermediate protein highly expressed in early neuronal progenitors (Lendahl et al., Cell 60, 585-595). […] Subsequently, we compared neural differentiation without caspase 3 activity. […] Increased expression of GFAP, MBP are characteristic with the early formation of astrocytes and oligodendrocytes respectively (Gage, F. H. (2000) Science 287, 1433-1438).

## CC(=O)N[C@@H](CC(=O)O)C(=O)N[C@@H](CCC(=O)O)C(=O)N[C@H](C(=O)N[C@H](C=O)CC(=O)O)C(C)C [Ac-DEVD-CHO]
  cytotoxicity: high levels of cytotoxicity
